Activity calls are given as the source filed them. No cut-off for these calls is given here.
Legend:
[1] = system: A549; assay: Induction of apoptosis in human A549 cells assessed as downregulation of Cyclin D1 expression incubated for 48 hrs by Western blotting analysis; format: functional, cell-based
[2] = biological target: T1, Insulin-like growth factor 2 mRNA-binding protein 1 (Homo sapiens, UniProt Q9NZI8); assay: Binding affinity to His-tagged recombinant IGF2BP1 (unknown origin) assessed as dissociation constant by surface plasmon resonance assay
T1 sequence (Q9NZI8 whole entry): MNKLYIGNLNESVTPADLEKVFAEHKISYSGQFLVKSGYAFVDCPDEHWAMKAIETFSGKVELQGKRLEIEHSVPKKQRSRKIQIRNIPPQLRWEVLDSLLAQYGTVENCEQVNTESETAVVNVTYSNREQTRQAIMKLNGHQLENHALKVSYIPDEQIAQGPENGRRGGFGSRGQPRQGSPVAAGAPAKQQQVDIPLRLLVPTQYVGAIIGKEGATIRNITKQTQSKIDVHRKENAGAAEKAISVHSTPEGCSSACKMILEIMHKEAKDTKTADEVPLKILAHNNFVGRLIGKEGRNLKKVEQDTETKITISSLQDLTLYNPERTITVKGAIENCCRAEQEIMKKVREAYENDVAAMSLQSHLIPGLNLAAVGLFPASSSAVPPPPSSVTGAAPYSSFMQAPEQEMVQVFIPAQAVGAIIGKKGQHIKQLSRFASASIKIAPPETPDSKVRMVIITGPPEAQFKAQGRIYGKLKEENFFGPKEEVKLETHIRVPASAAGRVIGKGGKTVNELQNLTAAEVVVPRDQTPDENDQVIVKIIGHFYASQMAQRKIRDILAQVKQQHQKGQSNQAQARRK

[3] = system: HCT-116; assay: Antiproliferative activity against human HCT-116 cells assessed as cell growth inhibition at 0.1 uM incubated for 72 hrs by SRB assay; format: functional
[4] = biological target: T1, Insulin-like growth factor 2 mRNA-binding protein 1; assay: Binding affinity to IGF2BP1 in human A549 cells assessed as protein stabilization at 1 uM at 49 degreeC incubated for 2 hrs by CETSA; format: cell-based
[5] = Acute toxicity in C57BL/6J mouse assessed as change in body weight at 0.75 mg/kg,ip measured after 14 days; format: organism-based; conditions: in vivo, 336 h, time 14 day
[6] = system: A549; assay: Induction of cell cycle arrest in human A549 cells assessed as accumulation of cells at S phase at 0.2 uM incubated for 24 hrs by PI staining based flow cytometric analysis (reference value: 23 %); format: functional
[7] = system: A549; assay: Induction of cell cycle arrest in human A549 cells assessed as accumulation of cells at G1 phase at 0.2 uM incubated for 24 hrs by PI staining based flow cytometric analysis (reference value: 65.6 %); format: functional
[8] = Selectivity index, ratio of IC50 for antiproliferative activity against human L02 cells to IC50 for antiproliferative activity against human HeLa cells; format: toxicity, cell-based; conditions: L02 cells versus HeLa cells, read-out: Ratio IC50
[9] = system: A549; assay: Induction of autophagy in human A549 cells assessed as upregulation of p62 protein expression at 0.1 to 0.5 uM incubated for 48 hrs by Western blotting analysis; format: functional, cell-based; conditions: dose 0.1-0.5 µM
[10] = system: A549; assay: Induction of cell cycle arrest in human A549 cells assessed as accumulation of cells at S phase at 0.5 uM incubated for 24 hrs by PI staining based flow cytometric analysis (reference value: 23 %); format: functional
[11] = system: A549; assay: Induction of cell cycle arrest in human A549 cells assessed as accumulation of cells at G1 phase at 0.1 uM incubated for 24 hrs by PI staining based flow cytometric analysis (reference value: 65.6 %); format: functional
[12] = system: A549; assay: Antitumor activity against human A549 cells xenografted in BALB/c mouse assessed as decrease in tumor weight at 0.5 mg/kg,ip administrated for 21 days; format: functional, organism-based; conditions: time 21.0 day
[13] = Selectivity index, ratio of IC50 for antiproliferative activity against human L02 cells to IC50 for antiproliferative activity against human HCT-116 cells; format: toxicity, cell-based; conditions: L02 cells versus HCT-116 cells, read-out: Ratio IC50
[14] = Antiproliferative activity against human L02 cells assessed as cell growth inhibition incubated for 72 hrs by SRB assay; format: toxicity, cell-based
[15] = Selectivity index, ratio of IC50 for antiproliferative activity against human L02 cells to IC50 for antiproliferative activity against human PANC-1 cells
[16] = Selectivity index, ratio of IC50 for antiproliferative activity against human L02 cells to IC50 for antiproliferative activity against human MDA-MB-231 cells; format: toxicity, cell-based; conditions: L02 cells versus MDA-MB-231 cells, read-out: Ratio IC50
[17] = system: A549; assay: Induction of cell cycle arrest in human A549 cells assessed as accumulation of cells at G2 phase at 0.2 uM incubated for 24 hrs by PI staining based flow cytometric analysis (reference value: 9.26 %); format: functional
[18] = system: HepG2; assay: Antiproliferative activity against human HepG2 cells assessed as cell growth inhibition incubated for 72 hrs by SRB assay; format: functional, cell-based; conditions: HepG2, 72 h
[19] = system: HeLa; assay: Antiproliferative activity against human HeLa cells assessed as cell growth inhibition incubated for 72 hrs by SRB assay; format: functional, cell-based
[20] = Selectivity index, ratio of IC50 for antiproliferative activity against human L02 cells to IC50 for antiproliferative activity against human BXPC-3 cells; format: toxicity, cell-based; conditions: L02 cells versus BXPC-3 cells, read-out: Ratio IC50
[21] = system: A549; assay: Induction of apoptosis in human A549 cells assessed as downregulation of c-Myc expression incubated for 48 hrs by Western blotting analysis; format: functional, cell-based
[22] = system: A549; assay: Induction of apoptosis in human A549 cells incubated for 48 hrs by Annexin V-FITC/PI staining based flow cytometric analysis; format: functional, cell-based
[23] = system: A549; assay: Induction of apoptosis in human A549 cells at 0.5 uM incubated for 48 hrs by Annexin V-FITC/PI staining based flow cytometric analysis; format: functional
[24] = system: A549; assay: Induction of autophagy in human A549 cells assessed as upregulation of Beclin-1 expression at 0.1 to 0.5 uM incubated for 48 hrs by Western blotting analysis; format: functional, cell-based; conditions: dose 0.1-0.5 µM
[25] = system: A549; assay: Antitumor activity against human A549 cells xenografted in BALB/c mouse assessed as vacuole formation at 0.5 mg/kg,ip administrated for 21 days by hematoxylin and eosin staining based microscopic analysis; format: functional, organism-based; conditions: time 21.0 day

Structure (SMILES): CC(=O)OC(C)(C)/C=C/C(=O)[C@](C)(O)[C@H]1[C@H](O)C[C@@]2(C)[C@@H]3CC=C4[C@@H](C[C@H](OC(=O)Cn5ncn(-c6ccc(F)cc6)c5=O)C(=O)C4(C)C)[C@]3(C)C(=O)C[C@]12C
- Activity [1]: Dose-Dependent Effect
- Kd [2]: 2.88 nM
- inhibition at 0.1 µM [3]: 73.1%
- Activity [4]: Active
- Activity [5]: Toxic
- Activity [6]: 16.6%
- Activity [7]: 63.6%
- selectivity ratio [8]: 6.67
- Activity [9]: Dose-Dependent Effect
- Activity [10]: 8.96%
- Activity [11]: 57.7%
- Activity [12]: Active
- selectivity ratio [13]: 2.94
- IC50 at 72 h [14]: 100 nM
- Ratio IC50 [15]: 1.14
- selectivity ratio [16]: 2.04
- Activity [17]: 16.4%
- IC50 [18]: 80 nM
- IC50 [19]: 15 nM
- selectivity ratio [20]: 5.56
- Activity [21]: Dose-Dependent Effect
- Activity [22]: Dose-Dependent Effect
- Activity [23]: 36.7%
- Activity [24]: inactive
- Activity [25]: Active
